Laboratory results: ChEMBL document CHEMBL5236613, “Exploration of 1,2,3-triazole linked benzenesulfonamide derivatives as isoform selective inhibitors of human carbonic anhydrase” (Bioorg Med Chem, 2023)
pIC50, pKi: −log10 of the molar value.

Key:
Carbonic anhydrase 9 = Carbonic anhydrase 9 (Homo sapiens, UniProt Q16790); assay: Inhibition of human transmembrane carbonic anhydrase 9 using 4-nitrophenyl acetate as substrate assessed as inhibition constant by spectrophotometric analysis
A549 = assay: cells; settings: Homo sapiens, A549, 24 h
Description: Antiproliferative activity against human A549 cells assessed as inhibition of cell growth incubated for 24 hrs by MTT assay

Structure (SMILES) | pKi (Carbonic anhydrase 9) | pIC50 (A549)
Cc1cccc(C)c1N1C(=O)c2ccc(C(=O)OCc3cn(-c4ccc(S(N)(=O)=O)cc4)nn3)cc2C1=O | 7.61 | 3.60
CCCCCCN1C(=O)c2ccc(C(=O)OCc3cn(-c4ccc(S(N)(=O)=O)cc4)nn3)cc2C1=O | 7.12 | 3.79
CCCCCCCCN1C(=O)c2ccc(C(=O)OCc3cn(-c4ccc(S(N)(=O)=O)cc4)nn3)cc2C1=O | 7.30 | 3.63
NS(=O)(=O)c1ccc(-n2cc(COC(=O)c3ccc4c(c3)C(=O)N(c3cccc5ccccc35)C4=O)nn2)cc1 | 7.60 | 3.56
NS(=O)(=O)c1ccc(-n2cc(COC(=O)c3ccc4c(c3)C(=O)N(c3ccccc3)C4=O)nn2)cc1 | 7.74 | 3.52
N#Cc1ccc(N2C(=O)c3ccc(C(=O)OCc4cn(-c5ccc(S(N)(=O)=O)cc5)nn4)cc3C2=O)cc1 | 7.54 | 3.57
NS(=O)(=O)c1ccc(-n2cc(COC(=O)c3ccc4c(c3)C(=O)N(c3ccc(Cl)cc3)C4=O)nn2)cc1 | 7.31 | 3.45
COc1cccc2c1C(=O)c1c(O)c3c(c(O)c1C2=O)C[C@@](O)(C(=O)CO)C[C@@H]3O[C@H]1C[C@H](N)[C@H](O)[C@H](C)O1 [DOXORUBICIN] |  | 4.97

Next, values leading:

pKi (Carbonic anhydrase 9) | pIC50 (A549) | Structure (SMILES)
7.73 | 3.54 | NS(=O)(=O)c1ccc(-n2cc(COC(=O)c3ccc4c(c3)C(=O)N(c3ccccc3Cl)C4=O)nn2)cc1
7.64 | 3.64 | NS(=O)(=O)c1ccc(-n2cc(COC(=O)c3ccc4c(c3)C(=O)N(c3cccc(F)c3)C4=O)nn2)cc1
7.46 | 3.70 | CCCCN1C(=O)c2ccc(C(=O)OCc3cn(-c4ccc(S(N)(=O)=O)cc4)nn3)cc2C1=O
7.45 | 3.59 | NS(=O)(=O)c1ccc(-n2cc(COC(=O)c3ccc4c(c3)C(=O)N(c3ccccc3I)C4=O)nn2)cc1
7.62 | 3.89 | NS(=O)(=O)c1ccc(-n2cc(COC(=O)c3ccc4c(c3)C(=O)N(Cc3ccc5c(c3)OCO5)C4=O)nn2)cc1
